According to ChEMBL document CHEMBL4507277:

Experiments:
[1] = biological target: Cyclin-dependent kinase-like 3 (Homo sapiens) (UniProt Q8IVW4); conditions: Compound concentration 1000.0 nM
[2] = biological target: cAMP-dependent protein kinase catalytic subunit beta (Homo sapiens) (UniProt P22694); conditions: Compound concentration 1000.0 nM
[3] = biological target: Cyclin-dependent kinase 3 (Homo sapiens) (UniProt Q00526); conditions: Compound concentration 1000.0 nM
[4] = biological target: RAC-beta serine/threonine-protein kinase (Homo sapiens) (UniProt P31751); conditions: Compound concentration 1000.0 nM
Chain of RAC-beta serine/threonine-protein kinase (Homo sapiens) (P31751 whole entry): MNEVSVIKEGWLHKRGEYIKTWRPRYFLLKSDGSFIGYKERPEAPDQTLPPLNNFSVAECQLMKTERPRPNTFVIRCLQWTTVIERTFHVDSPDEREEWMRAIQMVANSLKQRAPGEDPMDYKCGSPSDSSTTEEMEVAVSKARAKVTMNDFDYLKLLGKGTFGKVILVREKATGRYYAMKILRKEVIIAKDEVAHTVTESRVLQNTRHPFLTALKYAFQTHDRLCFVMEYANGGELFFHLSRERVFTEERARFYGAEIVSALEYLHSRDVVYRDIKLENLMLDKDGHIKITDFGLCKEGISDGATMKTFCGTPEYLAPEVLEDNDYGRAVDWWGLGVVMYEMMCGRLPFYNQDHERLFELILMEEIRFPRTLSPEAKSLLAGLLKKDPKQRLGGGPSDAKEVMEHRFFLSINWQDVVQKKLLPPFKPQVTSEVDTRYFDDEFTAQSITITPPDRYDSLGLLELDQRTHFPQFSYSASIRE

[5] = biological target: Mitogen-activated protein kinase 14 (Homo sapiens) (UniProt Q16539); conditions: Compound concentration 1000.0 nM
[6] = biological target: AP2-associated protein kinase 1 (Homo sapiens) (UniProt Q2M2I8); conditions: Compound concentration 1000.0 nM
[7] = biological target: Serine/threonine-protein kinase PRP4 homolog (Homo sapiens) (UniProt Q13523); conditions: Compound concentration 1000.0 nM
[8] = biological target: Calcium/calmodulin-dependent protein kinase type 1G (Homo sapiens) (UniProt Q96NX5); conditions: Compound concentration 1000.0 nM
[9] = test system: Epidermal growth factor receptor (Homo sapiens), P00533 [UNDEFINED MUTATION]; conditions: Compound concentration 1000.0 nM
Chain of Epidermal growth factor receptor (Homo sapiens), P00533 [UNDEFINED MUTATION] (P00533 whole entry, looked up, stated change not applied, canonical isoform): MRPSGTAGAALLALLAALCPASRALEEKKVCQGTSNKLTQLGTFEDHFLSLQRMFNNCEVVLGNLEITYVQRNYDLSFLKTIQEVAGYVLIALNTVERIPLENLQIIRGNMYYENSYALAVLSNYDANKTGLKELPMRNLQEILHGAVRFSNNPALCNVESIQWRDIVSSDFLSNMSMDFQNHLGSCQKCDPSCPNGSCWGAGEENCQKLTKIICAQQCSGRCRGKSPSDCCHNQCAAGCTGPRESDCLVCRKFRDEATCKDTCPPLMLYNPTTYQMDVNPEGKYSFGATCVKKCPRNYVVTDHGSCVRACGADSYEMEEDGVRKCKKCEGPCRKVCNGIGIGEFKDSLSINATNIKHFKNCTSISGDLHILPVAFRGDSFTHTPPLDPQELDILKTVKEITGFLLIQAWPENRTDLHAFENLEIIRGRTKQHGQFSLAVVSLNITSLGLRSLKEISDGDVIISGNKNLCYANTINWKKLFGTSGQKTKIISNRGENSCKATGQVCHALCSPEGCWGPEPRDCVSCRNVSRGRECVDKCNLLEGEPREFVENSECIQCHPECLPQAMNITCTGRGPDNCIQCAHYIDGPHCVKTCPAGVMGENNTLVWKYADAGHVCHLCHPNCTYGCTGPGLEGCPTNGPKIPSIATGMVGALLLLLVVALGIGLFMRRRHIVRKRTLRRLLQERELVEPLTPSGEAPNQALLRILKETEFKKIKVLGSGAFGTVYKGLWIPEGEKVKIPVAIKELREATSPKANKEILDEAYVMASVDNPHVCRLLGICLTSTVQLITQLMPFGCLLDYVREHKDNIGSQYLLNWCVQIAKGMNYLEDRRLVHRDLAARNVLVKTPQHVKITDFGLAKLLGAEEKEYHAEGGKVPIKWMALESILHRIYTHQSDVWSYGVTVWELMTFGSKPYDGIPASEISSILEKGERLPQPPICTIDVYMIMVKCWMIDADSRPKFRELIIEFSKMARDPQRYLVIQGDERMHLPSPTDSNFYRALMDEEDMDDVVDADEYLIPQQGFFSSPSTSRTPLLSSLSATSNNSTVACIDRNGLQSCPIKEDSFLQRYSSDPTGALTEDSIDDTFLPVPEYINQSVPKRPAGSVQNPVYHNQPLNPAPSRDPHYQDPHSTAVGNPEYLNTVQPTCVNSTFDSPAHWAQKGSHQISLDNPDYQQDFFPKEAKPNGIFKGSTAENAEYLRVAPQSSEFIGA

[10] = biological target: Serine/threonine-protein kinase TAO1 (Homo sapiens) (UniProt Q7L7X3); conditions: Compound concentration 1000.0 nM
Chain of Serine/threonine-protein kinase TAO1 (Homo sapiens) (Q7L7X3 whole entry): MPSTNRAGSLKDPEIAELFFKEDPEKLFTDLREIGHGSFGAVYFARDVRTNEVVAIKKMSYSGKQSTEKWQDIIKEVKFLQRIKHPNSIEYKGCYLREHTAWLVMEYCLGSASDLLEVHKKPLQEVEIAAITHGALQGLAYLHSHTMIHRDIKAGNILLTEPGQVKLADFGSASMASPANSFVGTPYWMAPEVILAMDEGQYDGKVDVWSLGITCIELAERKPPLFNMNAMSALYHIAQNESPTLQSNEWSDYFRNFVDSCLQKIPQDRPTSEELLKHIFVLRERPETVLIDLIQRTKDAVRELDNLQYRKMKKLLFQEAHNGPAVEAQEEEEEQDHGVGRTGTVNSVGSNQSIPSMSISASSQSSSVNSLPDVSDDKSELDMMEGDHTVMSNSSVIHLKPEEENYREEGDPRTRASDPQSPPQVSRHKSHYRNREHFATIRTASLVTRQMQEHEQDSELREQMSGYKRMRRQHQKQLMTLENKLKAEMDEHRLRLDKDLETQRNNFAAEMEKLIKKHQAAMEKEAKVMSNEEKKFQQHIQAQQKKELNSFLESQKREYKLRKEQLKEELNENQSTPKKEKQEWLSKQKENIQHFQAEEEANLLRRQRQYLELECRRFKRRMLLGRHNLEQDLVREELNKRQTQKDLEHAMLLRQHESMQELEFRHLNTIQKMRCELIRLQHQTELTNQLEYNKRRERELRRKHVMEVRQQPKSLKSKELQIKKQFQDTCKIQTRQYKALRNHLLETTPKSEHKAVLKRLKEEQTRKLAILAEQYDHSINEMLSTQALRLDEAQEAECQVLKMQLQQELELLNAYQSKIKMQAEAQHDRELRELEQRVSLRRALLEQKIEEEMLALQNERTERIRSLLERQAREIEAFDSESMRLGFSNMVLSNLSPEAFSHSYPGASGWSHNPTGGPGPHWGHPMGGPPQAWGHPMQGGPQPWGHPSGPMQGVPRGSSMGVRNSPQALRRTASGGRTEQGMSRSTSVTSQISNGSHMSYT

[11] = test system: Epidermal growth factor receptor (Homo sapiens), P00533 [UNDEFINED MUTATION]; conditions: Compound concentration 1000.0 nM; remark: listed apart in the source
[12] = biological target: Platelet-derived growth factor receptor alpha (Homo sapiens) (UniProt P16234); conditions: Compound concentration 1000.0 nM
[13] = biological target: Interleukin-1 receptor-associated kinase 4 (Homo sapiens) (UniProt Q9NWZ3); conditions: Compound concentration 1000.0 nM
[14] = biological target: Serine/threonine-protein kinase B-raf (Homo sapiens) (UniProt P15056); conditions: Compound concentration 1000.0 nM
[15] = biological target: Ribosomal protein S6 kinase alpha-4 (Homo sapiens) (UniProt O75676); conditions: Compound concentration 1000.0 nM
[16] = biological target: Protein kinase C epsilon type (Homo sapiens) (UniProt Q02156); conditions: Compound concentration 1000.0 nM
[17] = test system: Epidermal growth factor receptor (Homo sapiens), P00533 [UNDEFINED MUTATION]; conditions: Compound concentration 1000.0 nM; remark: listed apart in the source
[18] = test system: Phosphatidylinositol 4,5-bisphosphate 3-kinase catalytic subunit alpha isoform (Homo sapiens), P42336 [E545A]; conditions: Compound concentration 1000.0 nM
[19] = biological target: 5'-AMP-activated protein kinase catalytic subunit alpha-2 (Homo sapiens) (UniProt P54646); conditions: Compound concentration 1000.0 nM
[20] = biological target: Protein kinase C iota type (Homo sapiens) (UniProt P41743); conditions: Compound concentration 1000.0 nM
[21] = biological target: Muscarinic acetylcholine receptor M2 (Homo sapiens) (UniProt P08172); conditions: Compound concentration 10.0 uM
[22] = biological target: Alpha-1B adrenergic receptor (Homo sapiens) (UniProt P35368); conditions: Compound concentration 10.0 uM
[23] = biological target: LIM domain kinase 2 (Homo sapiens) (UniProt P53671); conditions: Compound concentration 1000.0 nM
[24] = biological target: Mitogen-activated protein kinase kinase kinase 15 (Homo sapiens) (UniProt Q6ZN16); conditions: Compound concentration 1000.0 nM
[25] = biological target: Dual specificity protein kinase CLK2 (Homo sapiens) (UniProt P49760); conditions: Compound concentration 1000.0 nM
[26] = biological target: 5'-AMP-activated protein kinase catalytic subunit alpha-1 (Homo sapiens) (UniProt Q13131); conditions: Compound concentration 1000.0 nM
[27] = test system: Receptor-type tyrosine-protein kinase FLT3 (Homo sapiens), P36888 [UNDEFINED MUTATION]; conditions: Compound concentration 1000.0 nM
[28] = test system: Hepatocyte growth factor receptor (Homo sapiens), P08581 [Y1235D]; conditions: Compound concentration 1000.0 nM
[29] = biological target: Casein kinase II subunit alpha' (Homo sapiens) (UniProt P19784); conditions: Compound concentration 1000.0 nM
[30] = biological target: Tyrosine-protein kinase HCK (Homo sapiens) (UniProt P08631); conditions: Compound concentration 1000.0 nM
[31] = biological target: Serine/threonine-protein kinase ULK1 (Homo sapiens) (UniProt O75385); conditions: Compound concentration 1000.0 nM
[32] = biological target: STE20-like serine/threonine-protein kinase (Homo sapiens) (UniProt Q9H2G2); conditions: Compound concentration 1000.0 nM
[33] = biological target: Ribosomal protein S6 kinase alpha-6 (Homo sapiens) (UniProt Q9UK32); conditions: Compound concentration 1000.0 nM
[34] = biological target: NT-3 growth factor receptor (Homo sapiens) (UniProt Q16288); conditions: Compound concentration 1000.0 nM
[35] = biological target: Mitogen-activated protein kinase kinase kinase 10 (Homo sapiens) (UniProt Q02779); conditions: Compound concentration 1000.0 nM
[36] = biological target: Mitogen-activated protein kinase kinase kinase 14 (Homo sapiens) (UniProt Q99558); conditions: Compound concentration 1000.0 nM
[37] = biological target: Cyclin-dependent kinase-like 5 (Homo sapiens) (UniProt O76039); conditions: Compound concentration 1000.0 nM
[38] = biological target: Cyclin-dependent kinase 4 (Homo sapiens) (UniProt P11802); conditions: Compound concentration 1000.0 nM
[39] = biological target: Proto-oncogene tyrosine-protein kinase ROS (Homo sapiens) (UniProt P08922); conditions: Compound concentration 1000.0 nM
Chain of Proto-oncogene tyrosine-protein kinase ROS (Homo sapiens) (P08922 whole entry): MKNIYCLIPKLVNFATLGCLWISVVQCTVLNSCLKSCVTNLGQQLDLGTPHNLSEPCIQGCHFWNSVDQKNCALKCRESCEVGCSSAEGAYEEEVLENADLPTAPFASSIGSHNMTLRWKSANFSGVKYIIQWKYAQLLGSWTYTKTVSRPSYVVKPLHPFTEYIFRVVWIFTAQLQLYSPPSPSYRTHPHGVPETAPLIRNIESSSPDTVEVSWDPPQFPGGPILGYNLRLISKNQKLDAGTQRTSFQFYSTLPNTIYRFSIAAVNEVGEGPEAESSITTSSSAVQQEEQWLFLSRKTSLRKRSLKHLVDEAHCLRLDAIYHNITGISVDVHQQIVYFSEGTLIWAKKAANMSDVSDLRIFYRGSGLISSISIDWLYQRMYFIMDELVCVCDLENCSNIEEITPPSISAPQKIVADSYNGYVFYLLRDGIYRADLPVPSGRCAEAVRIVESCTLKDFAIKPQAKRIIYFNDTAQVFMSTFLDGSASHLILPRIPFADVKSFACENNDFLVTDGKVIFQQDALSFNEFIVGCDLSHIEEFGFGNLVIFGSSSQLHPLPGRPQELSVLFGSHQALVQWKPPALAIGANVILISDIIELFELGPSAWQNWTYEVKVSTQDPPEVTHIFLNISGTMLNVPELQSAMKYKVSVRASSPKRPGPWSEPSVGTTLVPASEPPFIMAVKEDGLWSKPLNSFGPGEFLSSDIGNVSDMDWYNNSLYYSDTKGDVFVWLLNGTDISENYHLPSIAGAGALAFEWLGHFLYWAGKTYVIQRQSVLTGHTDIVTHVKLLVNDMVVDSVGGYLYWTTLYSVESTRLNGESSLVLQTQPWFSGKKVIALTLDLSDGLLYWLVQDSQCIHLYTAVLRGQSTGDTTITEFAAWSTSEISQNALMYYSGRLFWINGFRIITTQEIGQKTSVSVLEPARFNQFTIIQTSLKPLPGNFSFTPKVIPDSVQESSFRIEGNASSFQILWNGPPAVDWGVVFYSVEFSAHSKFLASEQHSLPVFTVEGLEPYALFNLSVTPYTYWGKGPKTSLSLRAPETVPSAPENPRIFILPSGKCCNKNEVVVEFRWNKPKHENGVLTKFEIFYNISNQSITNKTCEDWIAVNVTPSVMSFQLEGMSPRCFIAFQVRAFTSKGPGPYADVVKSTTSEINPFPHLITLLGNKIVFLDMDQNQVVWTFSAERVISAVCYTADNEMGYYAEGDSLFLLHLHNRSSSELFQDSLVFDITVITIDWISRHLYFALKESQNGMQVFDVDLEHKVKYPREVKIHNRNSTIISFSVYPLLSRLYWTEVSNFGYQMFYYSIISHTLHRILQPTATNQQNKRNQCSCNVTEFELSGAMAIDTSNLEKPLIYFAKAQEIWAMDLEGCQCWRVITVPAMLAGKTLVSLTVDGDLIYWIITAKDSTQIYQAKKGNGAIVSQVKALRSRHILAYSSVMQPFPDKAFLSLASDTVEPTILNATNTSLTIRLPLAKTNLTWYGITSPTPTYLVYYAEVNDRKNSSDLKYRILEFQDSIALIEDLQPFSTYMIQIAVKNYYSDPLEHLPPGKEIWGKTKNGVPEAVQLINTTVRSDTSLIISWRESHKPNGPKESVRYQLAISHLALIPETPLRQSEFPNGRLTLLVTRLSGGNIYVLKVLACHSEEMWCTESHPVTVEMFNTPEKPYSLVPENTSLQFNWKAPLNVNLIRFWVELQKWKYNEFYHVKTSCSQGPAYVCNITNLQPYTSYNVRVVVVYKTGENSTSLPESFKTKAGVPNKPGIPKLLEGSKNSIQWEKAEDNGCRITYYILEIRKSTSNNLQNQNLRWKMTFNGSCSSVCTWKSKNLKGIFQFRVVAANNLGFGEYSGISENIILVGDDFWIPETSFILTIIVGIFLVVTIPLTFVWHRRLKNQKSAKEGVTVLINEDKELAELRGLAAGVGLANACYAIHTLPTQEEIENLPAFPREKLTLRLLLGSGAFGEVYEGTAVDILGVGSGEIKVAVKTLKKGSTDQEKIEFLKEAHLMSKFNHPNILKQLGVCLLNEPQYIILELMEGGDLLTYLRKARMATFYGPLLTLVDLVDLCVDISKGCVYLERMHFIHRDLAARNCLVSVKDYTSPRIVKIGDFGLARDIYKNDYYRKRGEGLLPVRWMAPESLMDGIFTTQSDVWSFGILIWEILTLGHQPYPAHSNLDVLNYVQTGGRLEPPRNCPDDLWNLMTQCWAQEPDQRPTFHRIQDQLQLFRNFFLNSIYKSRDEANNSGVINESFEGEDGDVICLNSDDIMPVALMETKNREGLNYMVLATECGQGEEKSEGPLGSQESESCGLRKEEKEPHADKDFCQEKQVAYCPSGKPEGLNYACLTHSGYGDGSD

[40] = biological target: Serine/threonine-protein kinase WNK3 (Homo sapiens) (UniProt Q9BYP7); conditions: Compound concentration 1000.0 nM
[41] = test system: Fibroblast growth factor receptor 3 (Homo sapiens), P22607 [G697C]; conditions: Compound concentration 1000.0 nM
[42] = biological target: Serine/threonine-protein kinase N2 (Homo sapiens) (UniProt Q16513); conditions: Compound concentration 1000.0 nM
[43] = biological target: Ephrin type-A receptor 8 (Homo sapiens) (UniProt P29322); conditions: Compound concentration 1000.0 nM
[44] = biological target: Serine/threonine-protein kinase mTOR (Homo sapiens) (UniProt P42345); conditions: Compound concentration 1000.0 nM
[45] = biological target: Phosphatidylinositol 4-phosphate 5-kinase type-1 alpha (Homo sapiens) (UniProt Q99755); conditions: Compound concentration 1000.0 nM

CCS(=O)(=O)c1cc2cc(C[C@@](O)(CC(C)(C)c3ccc(F)cc3C(N)=O)C(F)(F)F)[nH]c2cn1
inactive: residual activity [1] 90% | residual activity [2] 99% | residual activity [3] 73% | residual activity [4] 93% | residual activity [5] 97% | residual activity [6] 100% | residual activity [7] 80% | residual activity [8] 100% | residual activity [9] 69% | residual activity [10] 73% | residual activity [11] 94% | residual activity [12] 99% | residual activity [13] 100% | residual activity [14] 69% | residual activity [15] 71% | residual activity [16] 100% | residual activity [17] 93% | residual activity [18] 99% | residual activity [19] 100% | residual activity [20] 100% | inhibition [21] -8.82% | inhibition [22] 1.64% | residual activity [23] 100% | residual activity [24] 57% | residual activity [25] 100% | residual activity [26] 100% | residual activity [27] 73% | residual activity [28] 100% | residual activity [29] 83% | residual activity [30] 100% | residual activity [31] 100% | residual activity [32] 88% | residual activity [33] 100% | residual activity [34] 82% | residual activity [35] 65% | residual activity [36] 59% | residual activity [37] 77% | residual activity [38] 81% | residual activity [39] 90% | residual activity [40] 100% | residual activity [41] 100% | residual activity [42] 85% | residual activity [43] 100% | residual activity [44] 100% | residual activity [45] 100%

CCS(=O)(=O)c1cc2cc(C[C@](O)(CC(C)(C)c3ccc(F)cc3C(N)=O)C(F)(F)F)[nH]c2cn1
inactive: residual activity [1] 100% | residual activity [2] 100% | residual activity [3] 100% | residual activity [4] 94% | residual activity [5] 100% | residual activity [6] 100% | residual activity [7] 98% | residual activity [8] 100% | residual activity [9] 83% | residual activity [10] 88% | residual activity [11] 89% | residual activity [12] 82% | residual activity [13] 100% | residual activity [14] 100% | residual activity [15] 94% | residual activity [16] 96% | residual activity [17] 100% | residual activity [18] 100% | residual activity [19] 97% | residual activity [20] 100% | inhibition [21] -0.48% | inhibition [22] 3.39% | residual activity [23] 100% | residual activity [24] 97% | residual activity [25] 100% | residual activity [26] 100% | residual activity [27] 86% | residual activity [28] 100% | residual activity [29] 92% | residual activity [30] 100% | residual activity [31] 100% | residual activity [32] 100% | residual activity [33] 82% | residual activity [34] 94% | residual activity [35] 100% | residual activity [36] 88% | residual activity [37] 100% | residual activity [38] 100% | residual activity [39] 100% | residual activity [40] 100% | residual activity [41] 96% | residual activity [42] 100% | residual activity [43] 82% | residual activity [44] 77% | residual activity [45] 100%
